pIC50: −log10 of the molar value.
target: T1, human renin (Homo sapiens, UniProt P00797); assay: plasma renin assay (inhibition of human renin; angiotensin I generated, measured by radioimmunoassay); assay type: biochemical; settings: human plasma pool, pH 6.0, 2 h incubation at 37°
T1 construct: A human plasma pool is used as the source of both the substrate (angiotensinogen) and the enzyme (renin); from tissue; host or cells: pooled human plasma
T1 sequence (P00797 67-406): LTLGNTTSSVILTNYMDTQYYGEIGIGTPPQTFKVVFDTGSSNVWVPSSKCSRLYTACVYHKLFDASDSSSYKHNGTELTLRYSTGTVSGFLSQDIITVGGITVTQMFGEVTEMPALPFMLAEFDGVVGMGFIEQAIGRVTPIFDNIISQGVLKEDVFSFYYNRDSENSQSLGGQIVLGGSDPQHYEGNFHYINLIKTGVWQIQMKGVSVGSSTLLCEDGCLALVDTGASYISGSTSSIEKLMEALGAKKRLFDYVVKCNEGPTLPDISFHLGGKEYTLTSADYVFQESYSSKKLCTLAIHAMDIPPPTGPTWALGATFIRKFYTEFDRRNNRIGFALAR
Procedure: The assay is performed as follows: The test compound (i.e. the inhibitor) is dissolved in dimethylsulfoxide (1 mM stock solution) and diluted with an aqueous buffer solution of 270 mM 2-(N-morpholino)ethanesulfonic acid and 1% human serum albumin (pH 5.85, also containing dimercaprol and 8-hydroxyquinoline sulfate in accordance with the instructions of the RIA kit noted below) to give an assay mixture in which the final dimethylsulfoxide content is 1% (v/v).
A human plasma pool is used as the source of both the substrate (angiotensinogen) and the enzyme (renin). The reaction is initiated by the addition of 50 μL of human plasma pool to 50 μL of various concentrations of inhibitor in the 1% dimethylsulfoxide assay buffer. The plasma renin activity is measured by the amount of angiotensin I generated at pH 6.0 following a 2 h incubation at 37°.
Quantitation of angiotensin I is performed by radioimmunoassay (RIA kit from New England Nuclear-Dupont, Mississauga, ON, Canada). The enzymatic activity of renin is expressed in ng of angiotensin I generated (/mL/2 h). The extent of inhibition of the reaction is determined from the amount of angiotensin I generated in reference to a control prepared without inhibitor. Nonlinear regression analysis is used to calculate the IC50 values, i.e. the molar concentration of the test compound required to cause a 50% inhibition of the enzyme activity.

Row | Structure (SMILES) | pIC50
1 | CC(C)C[C@H](O)[C@H](O)[C@H](CC1CCCCC1)NC(=O)[C@@H](CC(=O)NCC1(O)CCCCC1)CC1CC1 [Compound 17, N^4-[(1-hydroxycyclohexyl)methyl]-N^1-[1(S)-(cyclohexylmethyl)-2(R),3(S)-dihydroxy-5-methylhexyl]-2(R)-(cyclopropylmethyl)butanediamide] | 7.03
2 | CC(C)C[C@H](O)[C@H](O)[C@H](CC1CCCCC1)NC(=O)[C@@H](CC(=O)N[C@@H](CO)[C@@H](O)c1ccccc1)CC1CC1 [Compound 18, N^4-[2(S)-hydroxy-1(S)-(hydroxymethyl)-2-phenylethyl]-N^1-[1(S)-(cyclohexylmethyl)-2(R),3(S)-dihydroxy-5-methylhexyl]-2(R)-(cyclopropylmethyl)butanediamide] | 7.02
3 | CC(C)C[C@H](O)[C@H](O)[C@H](CC1CCCCC1)NC(=O)[C@@H](CC(=O)N(Cc1ccccn1)CC1(O)CCC(=O)CC1)CC1CC1 [Compound 19, N^4-[(1-hydroxy-4-oxocyclohexyl)methyl]-N^4-(2-pyridinylmethyl)-N^1-[1(S)-(cyclohexylmethyl)-2(R),3(S)-dihydroxy-5-methylhexyl]-2(R)-(cyclopropylmethyl)butanediamide] | 7.00
4 | CC(C)C[C@H](O)[C@H](O)[C@H](CC1CCCCC1)NC(=O)[C@@H](CC(=O)NC[C@H](O)C1CCCCC1)CC1CC1 [Compound 20 (R), N^4-(R)-(2-cyclohexyl-2-hydroxyethyl)-N^1-[1(S)-(cyclohexylmethyl)-2(R),3(S)-dihydroxy-5-methylhexyl]-2(R)-(cyclopropylmethyl)butanediamide] | 6.94
5 | CC(C)C[C@H](O)[C@H](O)[C@H](CC1CCCCC1)NC(=O)[C@@H](CC(=O)NC[C@@H](O)C1CCCCC1)CC1CC1 [Compound 20 (S), N^4-(S)-(2-cyclohexyl-2-hydroxyethyl)-N^1-[1(S)-(cyclohexylmethyl)-2(R),3(S)-dihydroxy-5-methylhexyl]-2(R)-(cyclopropylmethyl)butanediamide] | 6.82
6 | CC(C)C[C@H](O)[C@H](O)[C@H](CC1CCCCC1)NC(=O)[C@@H](CC(=O)N(Cc1ccccc1)CC(C)(C)O)CC1CC1 [Compound 21, N^4-benzyl-N^4-(2-hydroxy-2-methylpropyl)-N^1-[1(S)-(cyclohexylmethyl)-2(R),3(S)-dihydroxy-5-methylhexyl]-2(R)-(cyclopropylmethyl)butanediamide] | 6.89
7 | CC(C)C[C@H](O)[C@H](O)[C@H](CC1CCCCC1)NC(=O)[C@@H](CC(=O)N(CC1CCCCC1)CC1(O)CCCCC1)CC1CC1 [Compound 25, N^4-(cyclohexylmethyl)-N^4-[(1-hydroxycyclohexyl)methyl]-N^1-[1(S)-(cyclohexylmethyl)-2(R),3(S)-dihydroxy-5-methylhexyl]2(R)-(cyclopropylmethyl)butanediamide] | 7.10
8 | CC(C)C[C@H](O)[C@H](O)[C@H](CC1CCCCC1)NC(=O)[C@@H](CC(=O)N(Cc1cccnc1)CC1(O)CCCCC1)CC1CC1 [Compound 26, N^4-[(1-hydroxycyclohexyl)methyl]-N^4-(3-pyridinylmethyl)-N^1-[1(S)-(cyclohexylmethyl)-2(R),3(S)-dihydroxy-5-methylhexyl]-2(R)-(cyclopropylmethyl)butanediamide] | 7.59
9 | CC(C)C[C@H](O)[C@H](O)[C@H](CC1CCCCC1)NC(=O)[C@@H](CC(=O)N(Cc1ccccc1)CC1(O)CCCCC1)Cc1c[nH]cn1 [Compound 28] | 7.28
10 | CC(C)C[C@H](O)[C@H](O)[C@H](CC1CCCCC1)NC(=O)[C@@H](CC(=O)N(Cc1ccncc1)CC1(O)CCCCC1)CC1CC1 [Compound 29] | 7.51
11 | CC(C)C[C@H](O)[C@H](O)[C@H](CC1CCCCC1)NC(=O)[C@@H](CC(=O)N(CCO)CC1CCCCC1)CC1CC1 [Compound 31, N^4-(cyclohexylmethyl)-N^4-(2-hydroxyethyl)-N^1-[1(S)-(cyclohexylmethyl)-2(R),3(S)-dihydroxy-5-methylhexyl]-2(R)-(cyclopropylmethyl)butanediamide] | 7.00
12 | CC(C)C[C@H](O)[C@H](O)[C@H](CC1CCCCC1)NC(=O)[C@@H](CC(=O)N(CC1CCCCC1)CC(C)(C)O)CC1CC1 [Compound 32, N^4-(cyclohexylmethyl)-N^4-(2-hydroxy-2-methylpropyl)-N^1-[1(S)-(cyclohexylmethyl)-2(R),3(S)-dihydroxy-5-methylhexyl]-2(R)-(cyclopropylmethyl)butanediamide] | 7.34
13 | CC(C)C[C@H](O)[C@H](O)[C@H](CC1CCCCC1)NC(=O)[C@@H](CC(=O)N(C)CC1(O)CCCCC1)Cc1c[nH]cn1 [Compound 35, N^4-[(1-hydroxycyclohexyl)methyl]-N^4-methyl-N^1-[1(S)-(cyclohexylmethyl)-2(R),3(S)-dihydroxy-5-methylhexyl]-2(R)-(1H-imidazol-4-ylmethyl)-butanediamide] | 7.17
14 | CC(C)C[C@H](O)[C@H](O)[C@H](CC1CCCCC1)NC(=O)[C@@H](CC(=O)N(CC1CCCCC1)CC(C)(C)O)Cc1cscn1 [Compound 36, N^4-(cyclohexylmethyl)-N^4-(2-hydroxy-2-methylpropyl)-N^1-[1(S)-(cyclohexylmethyl)-2(R),3(S)-dihydroxy-5-methylhexyl]-2(R)-(4-thiazolylmethyl)butanediamide] | 8.15
15 | CN(C)C(=O)CN(CC1(O)CCCCC1)C(=O)C[C@@H](CC1CC1)C(=O)N[C@@H](CC1CCCCC1)[C@@H](O)[C@@H]1CC(C)(C)N(C)C1=O [Compound 38, N^4-[(1-hydroxycyclohexyl)methyl]-N^4-[2-(dimethylamino)-2-oxoethyl]-N^1-[1(S)-(cyclohexylmethyl)-2(S)-hydroxy-2-(1,5,5-trimethyl-2-oxopyrrolidin-3(S)-yl)ethyl]-2(R)-(cyclopropylmethyl)butanediamide] | 7.82

Continued, values first:

Row | pIC50 | Structure (SMILES)
16 | 7.80 | CC(C)C[C@H](O)[C@H](O)[C@H](CC1CCCCC1)NC(=O)[C@@H](CC(=O)N(CC(=O)N(C)C)CC1(O)CCCCC1)CC1CC1 [Compound 23, N^4-[(1-hydroxycyclohexyl)methyl]-N^4-[2-(dimethylamino)-2-oxoethyl]-N^1-[1(S)-(cyclohexylmethyl)-2(R),3(S)-dihydroxy-5-methylhexyl]-2(R)-(cyclopropylmethyl)butanediamide]
17 | 8.74 | CC(C)C[C@H](O)[C@H](O)[C@H](CC1CCCCC1)NC(=O)[C@@H](CC(=O)N(CC(=O)N(C)C)CC1(O)CCCCC1)Cc1c[nH]cn1 [Compound 24, N^4-[(1-hydroxycyclohexyl)methyl]-N^4-[2-(dimethylamino)-2-oxoethyl]-N^1-[1(S)-(cyclohexylmethyl)-2(R),3(S)-dihydroxy-5-methylhexyl]-2(R)-(1H-imidazol-4-ylmethyl)-butanediamide]
18 | 7.82 | CC(C)C[C@H](O)[C@H](O)[C@H](CC1CCCCC1)NC(=O)[C@@H](CC(=O)N(Cc1ccccc1)CC1(O)CCCCC1)Cc1cscn1 [Compound 27, N^4-benzyl-N^4-[ (1-hydroxycyclohexyl)methyl]-N^1-[1(S)-(cyclohexylmethyl)-2(R),3(S)-dihydroxy-5-methylhexyl]-2(R)-(4-thiazolylmethyl)butanediamide]
19 | 7.92 | CC(C)C[C@H](O)[C@H](O)[C@H](CC1CCCCC1)NC(=O)[C@@H](CC(=O)N(C)CC1(O)CCCCC1)Cc1cscn1 [Compound 30, N^4-[(1-hydroxycyclohexyl)methyl]-N^4-methyl-N^1-[1(S)-(cyclohexylmethyl)-2(R),3(S)-dihydroxy-5-methylhexyl]-2(R)-(4-thiazolylmethyl)butanediamide]
20 | 7.96 | CC(C)C[C@H](O)[C@H](O)[C@H](CC1CCCCC1)NC(=O)[C@@H](CC(=O)N(Cc1ccc2c(c1)OCO2)CC1(O)CCCCC1)Cc1cscn1 [Compound 33, N^4-[(1-hydroxycyclohexyl)methyl]-N^4-[(3,4-methylenedioxyphenyl)methyl]-N^1-[1(S)-(cyclohexylmethyl)-2(R),3(S)-dihydroxy-5-methylhexyl]-2(R)-(4-thiazolylmethyl)butanediamide]
21 | 8.80 | CC(C)C[C@H](O)[C@H](O)[C@H](CC1CCCCC1)NC(=O)[C@@H](CC(=O)N(CC(=O)N(C)C)CC1(O)CCCCC1)Cc1cscn1 [Compound 34, N^4-[(1-hydroxycyclohexyl)methyl]-N^4-[2-(dimethylamino)-2-oxoethyl]-N^1-[1(S)-(cyclohexylmethyl)-2(R),3(S)-dihydroxy-5-methylhexyl]-2(R)-(4-thiazolylmethyl)butanediamide]
22 | 7.80 | CC(C)C[C@H](O)[C@H](O)[C@H](CC1CCCCC1)NC(=O)[C@@H](CC(=O)N(CCO)CC1(O)CCCCC1)Cc1cscn1 [Compound 37, N^4-[(1-hydroxycyclohexyl)methyl]-N^4-(2-hydroxyethyl)-N^1-[1(S)-(cyclohexylmethyl)-2(R),3(S)-dihydroxy-5-methylhexyl]-2(R)-(4-thiazolylmethyl)butanediamide]

Source: US5523315A, “N-(hydroxyethyl)butanediamide derivatives” (Bio-Mega/Boehringer Ingelheim Research Inc., priority 1993, dated 1996)
